In US9895349B2, “N-phenyl-carboxamide derivatives and the use thereof as medicaments for the treatment of hepatitis B” (priority 2013, dated 2018):

Assays:
HBV [1] = assay: Anti-HBV activity, HepG2.2.15 stable transfected cell line, HBV DNA from secreted virions by realtime PCR; assay type: cell-based, Hepatitis B virus (HBV); details: HepG2.2.15 cells, 6 days of treatment
HepG2 cells = assay: Cytotoxicity in HepG2 cells, Resazurin assay; details: read-out: HepG2 4 days CC50, 4 days incubation, Resazurin viability
HBV [2] = assay: Anti-HBV activity, HepG2.117 inducibly HBV producing cell line (Tet-off), intracellular HBV DNA by realtime PCR; assay type: cell-based, Hepatitis B virus (HBV); details: HepG2.117 cells, 3 days of treatment
in vitro = details: human
[3] = Cytotoxicity in HepG2 cells, Resazurin assay; details: human
[4] = Hepatitis B virus, HepG2.2.15, 144 h
[5] = Hepatitis B virus, HepG2.117, 72 h

CCC(CC)S(=O)(=O)N1CC[C@H](C(=O)Nc2ccc(F)c(C)c2)C1 [Compound 19]
EC50 (HBV [1]): 8.4 µM | CC50 (HepG2 cells): > 25 µM | EC50 (HBV [2]): 2.9 µM

Cc1cc(NC(=O)[C@H]2CCN(S(=O)(=O)C3CCCCC3)C2)ccc1F [Compound 23]
EC50 (HBV [1]): 0.96 µM | CC50 (HepG2 cells): > 25 µM | EC50 (HBV [2]): 1.4 µM

Cc1cc(NC(=O)[C@H]2CCN(S(=O)(=O)C(C)C)C2)ccc1F [Compound 7]
EC50 (HBV [1]): 13.5 µM | CC50 (HepG2 cells): > 25 µM | EC50 (HBV [2]): 4.7 µM

Cc1cc(NC(=O)[C@H]2C[C@@H]3CC[C@H]2N3S(=O)(=O)CC(C)C)ccc1F (racemic) [Compound 30, N-(4-fluoro-3-methyl-phenyl)-7-isobutylsulfonyl-7-azabicyclo[2.2.1]heptane-3-carboxamide]
EC50 (HBV [1]; [4]): 0.61 µM | CC50 at 4 days (in vitro): > 25 µM | EC50 (HBV [2]; [5]): 4.7 µM

Cc1cc(NC(=O)C2CCN(S(=O)(=O)C3CCS(=O)(=O)C3)C2)ccc1F (mixture of isomers) [Compound 13]
EC50 (HBV [1]): 4.6 µM | CC50 (HepG2 cells): > 25 µM | EC50 (HBV [2]): 3.4 µM

Cc1cc(NC(=O)C2(C)CCN(S(=O)(=O)CC(C)C)C2)ccc1F (racemic) [Compound 29a, N-(4-fluoro-3-methyl-phenyl)-1-isobutylsulfonyl-3-methyl-pyrrolidine-3-carboxamide]
EC50 (HBV [1]): > 25 µM | CC50 (HepG2 cells): > 25 µM | EC50 (HBV [2]): > 25 µM

COCC(C)S(=O)(=O)N1CCC(C(=O)Nc2ccc(F)c(C)c2)C1 (mixture of isomers) [Compound 18]
EC50 (HBV [1]): 5.8 µM | CC50 (HepG2 cells): > 25 µM | EC50 (HBV [2]): 5.3 µM

COC(=O)N1CC[C@H](C(=O)Nc2ccc(F)c(C)c2)C1 [Compound 22]
EC50 (HBV [1]): 13.6 µM | CC50 (HepG2 cells): > 25 µM | EC50 (HBV [2]): 8.6 µM

Cc1cc(NC(=O)[C@H]2CCN(S(=O)(=O)C3CC3)C2)ccc1F [Compound 5]
EC50 (HBV [1]): 9.1 µM | CC50 (HepG2 cells): > 25 µM | EC50 (HBV [2]): 2 µM

Cc1cc(NC(=O)C2(F)CCN(S(=O)(=O)NC(C)C)C2)ccc1F (racemic) [Compound 35b, 3-fluoro-N-(4-fluoro-3-methyl-phenyl)-1-(isopropylsulfamoyl)pyrrolidine-3-carboxamide]
EC50 (HBV [1]): > 5 µM | CC50 (HepG2 cells): > 25 µM | EC50 (HBV [2]): > 5 µM

Cc1cc(NC(=O)C2CCN(S(=O)(=O)C3CS(=O)(=O)CC3O)C2)ccc1F (mixture of isomers) [Compound 15]
EC50 (HBV [1]): 12.5 µM | CC50 (HepG2 cells): > 25 µM | EC50 (HBV [2]): 14.7 µM

Cc1cc(NC(=O)C2CN(S(=O)(=O)NC(C)C)C3CC23)ccc1F (single isomer, unassigned) [Compound 36b, N-(4-fluoro-3-methyl-phenyl)-2-(isopropylsulfamoyl)-2-azabicyclo[3.1.0]hexane-4-carboxamide]
EC50 (HBV [1]): 0.46 µM | CC50 (HepG2 cells): > 25 µM | EC50 (HBV [2]): 0.38 µM

Cc1cc(NC(=O)C2(C)CCN(S(=O)(=O)CC(C)C)C2)ccc1F (racemic) [Compound 29b, N-(4-fluoro-3-methyl-phenyl)-1-isobutylsulfonyl-3-methyl-pyrrolidine-3-carboxamide]
EC50 (HBV [1]): 18.3 µM | CC50 (HepG2 cells): > 25 µM | EC50 (HBV [2]): 6.9 µM

Cc1cc(NC(=O)C2CCN(S(=O)(=O)C3CCCCC3O)C2)ccc1F (mixture of isomers) [Compound 16]
EC50 (HBV [1]): 3.5 µM | CC50 (HepG2 cells): > 25 µM | EC50 (HBV [2]): 2.5 µM

Cc1cc(NC(=O)C2CCN(S(=O)(=O)C(C)CC(C)C)C2)ccc1F (mixture of isomers) [Compound 17]
EC50 (HBV [1]): 5.9 µM | CC50 (HepG2 cells): > 25 µM | EC50 (HBV [2]): 5.9 µM

Cc1cc(NC(=O)[C@H]2CCN(C(=O)OC3COC3)C2)ccc1F [Compound 20]
EC50 (HBV [1]): 16.1 µM | CC50 (HepG2 cells): > 25 µM | EC50 (HBV [2]): 4 µM

Cc1cc(NC(=O)[C@H]2CCN(S(=O)(=O)NC3CCN(C)C3=O)C2)ccc1F (stereo partly drawn) [Compound 48, (3S)—N-(4-fluoro-3-methyl-phenyl)-1-[(1-methyl-2-oxo-pyrrolidin-3-yl)sulfamoyl]pyrrolidine-3-carboxamide]
EC50 (HBV [1]; [4]): 1.37 µM | CC50 at 4 days [3]: > 25 µM | EC50 (HBV [2]; [5]): 0.57 µM

Cc1cc(NC(=O)[C@H]2CCN(S(C)(=O)=O)C2)ccc1F [Compound 4]
EC50 (HBV [1]): 16.4 µM | CC50 (HepG2 cells): > 25 µM | EC50 (HBV [2]): 10.7 µM

Cc1cc(NC(=O)C2(F)CCN(S(=O)(=O)N[C@H]3CCOC3)C2)ccc1F (single isomer, unassigned) [Compound 42b]
EC50 (HBV [1]): 3.25 µM | CC50 (HepG2 cells): > 25 µM | EC50 (HBV [2]): 1.69 µM

COCCS(=O)(=O)N1CC[C@H](C(=O)Nc2ccc(F)c(C)c2)C1 [Compound 14]
EC50 (HBV [1]): 1.9 µM | CC50 (HepG2 cells): > 25 µM | EC50 (HBV [2]): 1.5 µM

Cc1cc(NC(=O)C2CCN(S(=O)(=O)C3CCOC3)C2)ccc1F (mixture of isomers) [Compound 12]
EC50 (HBV [1]): 4.1 µM | CC50 (HepG2 cells): > 25 µM | EC50 (HBV [2]): 2.3 µM

Cc1cc(NC(=O)C2(F)CCN(S(=O)(=O)NC(C)C)C2)ccc1F (racemic) [Compound 35a, 3-fluoro-N-(4-fluoro-3-methyl-phenyl)-1-(isopropylsulfamoyl)pyrrolidine-3-carboxamide]
EC50 (HBV [1]): 0.563 µM | CC50 at 4 days [3]: > 25 µM | EC50 (HBV [2]): 0.228 µM

Cc1cc(NC(=O)[C@H]2CCN(C(=O)OC(C)C)C2)ccc1F [Compound 21]
EC50 (HBV [1]): 5.4 µM | CC50 (HepG2 cells): > 25 µM | EC50 (HBV [2]): 2.7 µM

Cc1cc(NC(=O)[C@H]2CCN(S(=O)(=O)CC3CC3)C2)ccc1F [Compound 8, (3S)-1-(cyclopropylmethylsulfonyl)-N-(4-fluoro-3-methyl-phenyl)pyrrolidine-3-carboxamide]
EC50 (HBV [1]; [4]): 0.58 µM | CC50 at 4 days [3]: > 25 µM | EC50 (HBV [2]; [5]): 0.33 µM
